tested on: Hi Line Brown chickens; assay: Immunogenicity of synthetic peptide in immunized chickens (IgY production); assay type: in vivo, chicken; settings: chickens immunized intramuscularly with peptide in Freund's adjuvant; IgY from egg yolk
Description: An experimental avian model was used in the experiments, represented by Hi Line Brown chickens, immunized with peptide 2, using complete Freund's adjuvant during the first immunization and incomplete Freund's adjuvant for the three subsequent immunizations, as described in the immunization protocol used. As a positive control, chickens were immunized with BSA, and as a negative control they were not immunized. Antibodies were extracted from egg yolk using an organic solvent and purified by thiophilic chromatography. Indirect ELISA tests were developed to measure the antibody titer and its specificity was determined by indirect ELISA. (25-26)
Experiments used an avian experimental model, represented by Hi Line Brown chickens, immunized with peptide 2, using complete Freund's adjuvant for the first immunization and incomplete Freund's adjuvant for the three subsequent immunizations described in the immunization protocol used. As a positive control, chickens were immunized with BSA, and as a negative control they were not immunized. Antibodies were extracted from egg yolk using an organic solvent and purified by thiophilic chromatography. Indirect ELISA tests were developed to measure the antibody titer and its specificity was determined by indirect ELISA. (25-26)
(§1) Experiments used an avian experimental model, represented by Hi Line Brown chickens, immunized with peptide 4, using complete Freund's adjuvant for the first immunization and incomplete Freund's adjuvant for the three subsequent immunizations described in the immunization protocol used. […] Indirect ELISA tests were developed to measure the antibody titer and its specificity was determined by indirect ELISA. […]
as §1, with “5,” for “4,”, “ELISA (FIG. 14)” for “ELISA.”

Q: With IPANFDWRQKTHVNPIRNQG [Peptide P05] as the sequence, how does the “Immunogenicity: induction of IgY antibodies recognizing native mite proteins” value (“Immunogenicity: induction” below) read?
A: induces the production of IgY-anti P05 antibody that recognizes epitopes B and/or T in native proteins of intradomiciliary Dp and Bt mites

Q: How did the “Immunogenicity: induction” value turn out when PIRMQGGCGSCWAFSGV [Peptide P02] was run?
A: induces the production of IgY anti P06 antibodies that recognize B and/or T epitopes in native proteins of intradomiciliary Df, Dp and Bt mite species

Q: Which “Immunogenicity: induction” value does the source give for TNACSINGNAPAEIDLRQMR [Peptide P01] here?
A: induces the production of IgY anti P04 antibodies that recognize B and/or T epitopes in native proteins of intradomiciliary Df and Bt mite species
